The target in test [1] is T1, IL-6R (Homo sapiens, UniProt P08887).
T1 construct: purchased Creative Biomart IL6R-584H
T1 sequence (P08887 20-355 limits assumed): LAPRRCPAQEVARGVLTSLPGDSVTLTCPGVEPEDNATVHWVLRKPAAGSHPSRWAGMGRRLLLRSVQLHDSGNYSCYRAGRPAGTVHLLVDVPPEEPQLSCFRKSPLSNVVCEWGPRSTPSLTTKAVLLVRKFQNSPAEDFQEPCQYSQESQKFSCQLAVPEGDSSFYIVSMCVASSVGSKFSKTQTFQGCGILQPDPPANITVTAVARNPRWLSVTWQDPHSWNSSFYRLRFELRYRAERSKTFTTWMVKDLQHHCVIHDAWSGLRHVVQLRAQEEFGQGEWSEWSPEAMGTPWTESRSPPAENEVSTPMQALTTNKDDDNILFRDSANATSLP
Kind of test: MST binding affinity of resynthesized NNP hits to IL-6R. The method, then:
Hit binding affinity to various targets were determined using Microscale Thermophoresis (MST). MST experiments were performed on a Monolith NT.115pico (NanoTemper Technologies GmbH, Munich, Germany). Measurements were performed at room temperature, in triplicate with incubation periods of 15, 30 and 45 minutes. […] Targets were labeled using Nanotemper Monolith 2nd Generation Protein Labeling Kits. RED-MALEIMIDE (Maleimide-647-dye) labeling kit was used for K-Ras and RED-NHS (NHS-647-dye) labeling kit was used for IL-6, IL-6R, TNFα and ASGPR. The buffer for the ASGPR contained 20 mM HEPES pH 7.4, 150 mM NaCl, 10 mM MgCl2, 2 mM CaCl2, 0.05% Pluronic F-127, and 1 mM DTT; for IL-6 contained 20 mM HEPES pH 7.4, 150 mM KCl, 10 mM MgCl2, and 0.1% Pluronic F-127; for the soluble IL-6 receptor 20 mM HEPES pH 7.4, 150 mM NaCl, 10 mM MgCl2, and 0.05% Tween-20; for K-Ras 20 mM HEPES pH 7.4, 150 mM NaCl, 10 mM MgCl2, 0.05% Tween-20 and 1 mM DTT; for TNFα 10 mM HEPES pH 7.4, 150 mM NaCl, 10 mM MgCl2, 0.05% Polysorbate-20. Triplicate data was analyzed using MO.AffinityAnalysis software (NanoTemper Technologies GmbH).

Test [2] concerns the target TNFα (Homo sapiens, UniProt P01375). In words: MST binding affinity of resynthesized NNP hits to TNFα. Also on record: purchased R&D Systems, Inc. 210-TA/CF. Conditions: read-out: KD (nM) [95% conf. int], NNP2 library hit, target TNFα, one-site binding model. Summed up:
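Microscale thermophoresis at room temperature, triplicate, 15, 30 and 45 min incubations; targets labeled with RED-NHS 647 dye. Buffers (all 20 mM HEPES pH 7.4 unless noted): IL-6 150 mM KCl, 10 mM MgCl2, 0.1% Pluronic F-127; IL-6R 150 mM NaCl, 10 mM MgCl2, 0.05% Tween-20; TNFα 10 mM HEPES, 150 mM NaCl, 10 mM MgCl2, 0.05% Polysorbate-20; ASGPR adds 2 mM CaCl2, 0.05% Pluronic F-127, 1 mM DTT.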

pKd: −log10 of the molar value. Read-outs that look alike come from different tables or passages of the source. Numbered stars: 1 amine (or outer) side, 2 acyl side, 3 side chain; on linkers, the order of the positions; unused ones are H or OH. Square brackets hold non-standard residues; d marks the D form. Peptide text beside a SMILES is read from it. * marks the point of attachment. 5FAM = O=C1OC2(c3ccc(O)cc3Oc3cc(O)ccc32)c2ccc(C(=O)*)cc21; NHCH2C6H4(4-CH2CONH2) = NC(=O)Cc1ccc(CN*)cc1; X1 = O=C(Cc1ccc(CN[*:1])cc1)[*:2]

Chain of TNFα (P01375 77-233 limits assumed): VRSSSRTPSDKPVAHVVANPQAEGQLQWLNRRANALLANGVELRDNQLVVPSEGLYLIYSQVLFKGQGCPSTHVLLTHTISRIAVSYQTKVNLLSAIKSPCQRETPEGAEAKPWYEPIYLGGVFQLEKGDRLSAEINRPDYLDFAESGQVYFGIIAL

The term Kd denotes the constant that tells how readily two partners part at equilibrium. In the case of `CC(C)C[C@H](NC(=O)[C@@H](CCCNC(=N)N)NC(=O)[C@@H](C)NC(=O)Cc1ccc(COC(=O)[C@H](Cc2ccccc2)NC(=O)[C@@H](CCCNC(=N)N)NC(=O)[C@@H](CC(N)=O)NC(=O)Cc2ccc(COC(=O)[C@H](Cc3ccccc3)NC(=O)[C@@H](CCCCN)NC(=O)[C@@H](C)NC(=O)Cc3ccc(COC(=O)[C@H](CC(C)C)NC(=O)[C@@H](CCC(=O)O)NC(=O)[C@@H](CCCCN)NC(=O)Cc4ccc(COC(=O)[C@@H](NC(=O)[C@@H](CCC(=O)O)NC(=O)[C@@H](Cc5ccccc5)NC(=O)Cc5ccc(COC(=O)[C@H](CC(C)C)NC(=O)[C@@H](CCCNC(=N)N)NC(=O)[C@@H](CC(C)C)NC(=O)Cc6ccc(COC(=O)[C@H](Cc7ccccc7)NC(=O)[C@@H](Cc7c[nH]c8ccccc78)NC(=O)[C@@H](CCCNC(=N)N)NC(=O)c7ccc8c(c7)C(=O)OC87c8ccc(O)cc8Oc8cc(O)ccc87)cc6)cc5)C(C)C)cc4)cc3)cc2)cc1)C(=O)OCc1ccc(CC(=O)N[C@H](Cc2c[nH]c3ccccc23)C(=O)N[C@H](CCCCN)C(=O)N[C@@H](CC(C)C)C(=O)OCc2ccc(CC(=O)N[C@H](C)C(=O)N[C@@H](C(=O)N[C@@H](CC(C)C)C(=O)OCc3ccc(CC(N)=O)cc3)C(C)C)cc2)cc1` [IL6R-93-13], in test [1] (read-out: MST (microscale thermophoresis) KD (nM) [95% conf. int], IL-6R, ester versus amide amino acid-PAM bond polymers, library NNP2), the Kd was 130 nM.
Regarding `CC(C)C[C@H](NC(=O)[C@@H](CCCNC(=N)N)NC(=O)[C@@H](C)NC(=O)Cc1ccc(CNC(=O)[C@H](Cc2ccccc2)NC(=O)[C@@H](CCC(=O)O)NC(=O)[C@H]2CCCN2C(=O)Cc2ccc(CNC(=O)[C@@H](NC(=O)[C@@H](CCCNC(=N)N)NC(=O)[C@@H](Cc3c[nH]c4ccccc34)NC(=O)Cc3ccc(CNC(=O)[C@H](CC(C)C)NC(=O)[C@@H](CCC(=O)O)NC(=O)[C@@H](CCCCN)NC(=O)Cc4ccc(CNC(=O)[C@H](Cc5ccccc5)NC(=O)[C@@H](CO)NC(=O)[C@@H](CCCNC(=N)N)NC(=O)Cc5ccc(CNC(=O)[C@H](Cc6ccccc6)NC(=O)[C@@H](CO)NC(=O)[C@@H](CCC(=O)O)NC(=O)Cc6ccc(CNC(=O)[C@H](Cc7ccccc7)NC(=O)[C@H](NC(=O)[C@@H](CC(N)=O)NC(=O)c7ccc8c(c7)C(=O)OC87c8ccc(O)cc8Oc8cc(O)ccc87)C(C)C)cc6)cc5)cc4)cc3)C(C)C)cc2)cc1)C(=O)NCc1ccc(CC(=O)N2CCC[C@@H]2C(=O)N[C@H](CCCNC(=N)N)C(=O)N[C@@H](C)C(=O)NCc2ccc(CC(=O)N[C@H](Cc3ccccc3)C(=O)N[C@H](CCCNC(=N)N)C(=O)NCC(=O)NCc3ccc(CC(N)=O)cc3)cc2)cc1` [IL6R-87-4] (5FAM-[dN][dV]F[X1][dE][dS]F[X1][dR][dS]F[X1][dK][dE]L[X1][dW][dR]V[X1][dP][dE]F[X1][dA][dR]L[X1][dP][dR]A[X1][dF][dR]G-{NHCH2C6H4(4-CH2CONH2)}), the Kd in test [1] (read-out: KD (nM) [95% conf. int], MST, NNP2 library hit, target SIL-6R, one-site binding model) came out at 22 nM.
By pKd is commonly meant the negative decadic logarithm of the Kd, by convention in mol/L. A lower pKd goes with a high Kd. `CC(C)C[C@H](NC(=O)[C@@H](CCCNC(=N)N)NC(=O)[C@@H](C)NC(=O)Cc1ccc(CNC(=O)[C@H](CC(C)C)NC(=O)[C@@H](CCCNC(=N)N)NC(=O)[C@@H](CCC(=O)O)NC(=O)Cc2ccc(CNC(=O)[C@H](C)NC(=O)[C@@H](CCCCN)NC(=O)[C@@H](Cc3ccc(O)cc3)NC(=O)Cc3ccc(CNC(=O)[C@H](Cc4ccccc4)NC(=O)[C@@H](CC(N)=O)NC(=O)[C@@H](Cc4ccc(O)cc4)NC(=O)Cc4ccc(CNC(=O)[C@H](CC(C)C)NC(=O)[C@H](NC(=O)[C@@H](CC(N)=O)NC(=O)Cc5ccc(CNC(=O)[C@H](Cc6ccccc6)NC(=O)[C@@H](CO)NC(=O)[C@@H](CCC(=O)O)NC(=O)Cc6ccc(CNC(=O)[C@H](Cc7ccccc7)NC(=O)[C@@H](Cc7c[nH]c8ccccc78)NC(=O)[C@@H](CCCNC(=N)N)NC(=O)c7ccc8c(c7)C(=O)OC87c8ccc(O)cc8Oc8cc(O)ccc87)cc6)cc5)[C@H](C)O)cc4)cc3)cc2)cc1)C(=O)NCc1ccc(CC(=O)N[C@H](CCC(=O)O)C(=O)N[C@H](CCCNC(=N)N)C(=O)N[C@H](C(=O)NCc2ccc(CC(=O)N[C@H](Cc3ccccc3)C(=O)N[C@H](CCCCN)C(=O)NCC(=O)NCc3ccc(CC(N)=O)cc3)cc2)C(C)C)cc1` [IL6R-87-3, Fluorescein-(D)Arg-(D)Trp-(L)Phe-PAM-(D)Glu-(D)Ser-(L)Phe-PAM-(D)Asn-(D)Thr-(L)Leu-PAM-(D)Tyr-(D)Asn-(L)Phe-PAM-(D)Tyr-(D)Lys-(L)Ala-PAM-(D)Glu-(D)Arg-(L)Leu-PAM-(D)Ala-(D)Arg- (L)Leu-PAM-(D)Glu-(D)Arg-(L)Val-PAM-(D)Phe-(D)Lys-Gly-PAM] (5FAM-[dR][dW]F[X1][dE][dS]F[X1][dN][dT]L[X1][dY][dN]F[X1][dY][dK]A[X1][dE][dR]L[X1][dA][dR]L[X1][dE][dR]V[X1][dF][dK]G-{NHCH2C6H4(4-CH2CONH2)}): the pKd in test [1] (MST, NNP2 library hit, target SIL-6R, one-site binding model) is 7.72.
`CC(C)C[C@H](NC(=O)[C@@H](CCCCN)NC(=O)[C@@H](Cc1ccccc1)NC(=O)Cc1ccc(CNC(=O)[C@H](CC(C)C)NC(=O)[C@H](NC(=O)[C@@H](CCCNC(=N)N)NC(=O)Cc2ccc(CNC(=O)[C@H](CC(C)C)NC(=O)[C@@H](CCCNC(=N)N)NC(=O)[C@@H](CC(C)C)NC(=O)Cc3ccc(CNC(=O)[C@H](CC(C)C)NC(=O)[C@H](NC(=O)[C@@H](CCCCN)NC(=O)c4ccc5c(c4)C(=O)OC54c5ccc(O)cc5Oc5cc(O)ccc54)C(C)C)cc3)cc2)C(C)C)cc1)C(=O)NCc1ccc(CC(=O)N[C@H](C)C(=O)N[C@H](CCCCN)C(=O)N[C@@H](Cc2ccccc2)C(=O)NCc2ccc(CC(=O)N[C@H](Cc3ccccc3)C(=O)N[C@@H](C(=O)N[C@@H](C)C(=O)NCc3ccc(CC(=O)N4CCC[C@@H]4C(=O)NCC(=O)N[C@H](C(=O)NCc4ccc(CC(=O)N[C@H](CCCCN)C(=O)N[C@H](Cc5ccccc5)C(=O)N[C@@H](Cc5ccccc5)C(=O)NCc5ccc(CC(=O)N[C@H](C)C(=O)N[C@@H](C(=O)N[C@@H](CC(C)C)C(=O)NCc6ccc(CC(N)=O)cc6)C(C)C)cc5)cc4)C(C)C)cc3)[C@H](C)O)cc2)cc1` [TNF-39-7] (5FAM-[dK][dV]L[X1][dL][dR]L[X1][dR][dV]L[X1][dF][dK]L[X1][dA][dK]F[X1][dF][dT]A[X1][dP]GV[X1][dK][dF]F[X1][dA][dV]L-{NHCH2C6H4(4-CH2CONH2)}): the Kd in test [2] was 53 nM.
Take `CC(C)C[C@H](NC(=O)[C@@H](CCC(=O)O)NC(=O)[C@H]1CCCN1C(=O)Cc1ccc(CNC(=O)[C@H](CC(C)C)NC(=O)[C@@H](CCCCN)NC(=O)[C@@H](Cc2ccccc2)NC(=O)Cc2ccc(CNC(=O)[C@@H](NC(=O)[C@@H](CCC(=O)O)NC(=O)[C@@H](Cc3ccccc3)NC(=O)Cc3ccc(CNC(=O)[C@H](CC(C)C)NC(=O)[C@@H](CCCNC(=N)N)NC(=O)[C@@H](CC(C)C)NC(=O)Cc4ccc(CNC(=O)[C@H](Cc5ccccc5)NC(=O)[C@@H](CC(C)C)NC(=O)[C@H](NC(=O)c5ccc6c(c5)C(=O)OC65c6ccc(O)cc6Oc6cc(O)ccc65)[C@H](C)O)cc4)cc3)C(C)C)cc2)cc1)C(=O)NCc1ccc(CC(=O)N2CCC[C@@H]2C(=O)N[C@H](CCC(=O)O)C(=O)N[C@@H](Cc2ccccc2)C(=O)NCc2ccc(CC(=O)N[C@H](Cc3c[nH]cn3)C(=O)N[C@H](CCC(=O)O)C(=O)N[C@@H](CC(C)C)C(=O)NCc3ccc(CC(=O)N4CCC[C@@H]4C(=O)N[C@H](CCCNC(=N)N)C(=O)N[C@@H](C)C(=O)NCc4ccc(CC(=O)N[C@H](Cc5c[nH]cn5)C(=O)N[C@H](Cc5ccc(O)cc5)C(=O)N[C@H](C(=O)NCc5ccc(CC(N)=O)cc5)C(C)C)cc4)cc3)cc2)cc1` [TNF-39-4] (5FAM-[dT][dL]F[X1][dL][dR]L[X1][dF][dE]V[X1][dF][dK]L[X1][dP][dE]L[X1][dP][dE]F[X1][dH][dE]L[X1][dP][dR]A[X1][dH][dY]V-{NHCH2C6H4(4-CH2CONH2)}): the Kd in test [2] was 28 nM.
